Experimental data published in patent publication US6590083B1, “Ketolide antibacterials” (Ortho-McNeil Pharmaceutical, Inc., priority 1999, dated 2003).
Converted amounts (≈) assume the structure as drawn.

Key:
Assay in all cases: In vitro susceptibility testing, MIC by NCCLS broth microdilution
H. influenzae OC4883 = format: cell-based, Haemophilus influenzae; conditions: Haemophilus test media, 35° C.
Protocol: (§1) Minimum inhibitory concentrations (“MICs”) were determined by the NCCLS broth microdilution procedure for susceptibility testing for bacteria that grow aerobically (National Committee for Clinical Laboratory Standards, 1997. Methods for dilution antimicrobial Susceptibility tests for bacteria that grow aerobically, 4th ed. Approved standard. NCCLS Document M7-A4. National Committee for Clinical Laboratory Standards, Villanova, Pa.). stock solutions were prepared on the day of the test and appropriate aliquots were added to cation adjusted Mueller-Hinton broth (CAMHB) or Haemophilus test media. Two-fold serial dilutions were prepared and added to wells in microtiter plates. Final test concentrations ranged from 16 to 0.015 μg/ml. Broth cultures of bacteria inoculated from growth on overnight plates for all test bacteria except Streptococcus pneumoniae and Haemophilus influenzae were incubated at 35° C. and then adjusted to the Kirby Bauer standard and diluted in CAMHB to achieve a final inoculum concentration of approximately 5×10^5 CFU/ml. Inocula for S. pneumoniae and H. influenzae were prepared by directly suspending colonies from an overnight plate, adjusting the turbidity and diluting as above. S. pneumoniae media was supplemented with 2.5% lysed horse blood. […]

S. pneumoniae ATCC49619 = format: cell-based, Streptococcus pneumoniae; conditions: media with 2.5% lysed horse blood, 35° C.
Protocol: as §1

S. aureus ATCC29213 = format: cell-based; conditions: CAMHB, 35° C., 16-20 h
Protocol: (§2) Minimum inhibitory concentrations (“MICs”) were determined by the NCCLS broth microdilution procedure for susceptibility testing for bacteria that grow aerobically (National Committee for Clinical Laboratory Standards, 1997. Methods for dilution antimicrobial Susceptibility tests for bacteria that grow aerobically, 4th ed. Approved standard. NCCLS Document M7-A4. National Committee for Clinical Laboratory Standards, Villanova, Pa.). stock solutions were prepared on the day of the test and appropriate aliquots were added to cation adjusted Mueller-Hinton broth (CAMHB) or Haemophilus test media. Two-fold serial dilutions were prepared and added to wells in microtiter plates. Final test concentrations ranged from 16 to 0.015 μg/ml. Broth cultures of bacteria inoculated from growth on overnight plates for all test bacteria except Streptococcus pneumoniae and Haemophilus influenzae were incubated at 35° C. and then adjusted to the Kirby Bauer standard and diluted in CAMHB to achieve a final inoculum concentration of approximately 5×10^5 CFU/ml. Inocula for S. pneumoniae and H. influenzae were prepared by directly suspending colonies from an overnight plate, adjusting the turbidity and diluting as above. S. pneumoniae media was supplemented with 2.5% lysed horse blood. All plates were incubated in ambient air at 35° C. for […] for S. peteumoniae and Haemophilus influenzae and 16-20 h for all other bacteria.

E. coli OC2605 = format: cell-based; conditions: CAMHB, 35° C., 16-20 h
Protocol: as §2

E. faecalis ATCC29212 = format: cell-based; conditions: CAMHB, 35° C., 16-20 h
Protocol: as §2

MIC (H. influenzae OC4883; Haemophilus influenzae, OC4883, Table 3, Table 2 compounds): 1 µg/mL (≈ 1.36 µM)
In Vitro Susceptibility (MIC) H. influenzae OC4883 (H. influenzae OC4883; Table 4, Formula III compounds): 1 µg/mL
MIC (S. pneumoniae ATCC49619; Streptococcus pneumoniae, ATCC49619, Table 3, Table 2 compounds): 0.06 µg/mL (≈ 0.0818 µM)
In Vitro Susceptibility (MIC) S. pneumoniae ATCC49619 (S. pneumoniae ATCC49619; Table 4, Formula III compounds): 0.06 µg/mL
MIC (S. aureus ATCC29213; Staphylococcus aureus, ATCC29213, Table 3, Table 2 compounds): 0.5 µg/mL (≈ 0.681 µM)
In Vitro Susceptibility (MIC) S. aureus ATCC29213 (S. aureus ATCC29213; Table 4, Formula III compounds): 0.5 µg/mL
MIC (E. coli OC2605; Escherichia coli, OC2605, Table 3, Table 2 compounds): > 16 µg/mL
In Vitro Susceptibility (MIC) E. coli OC2605 (E. coli OC2605; Table 4, Formula III compounds): >16 µg/mL
MIC (E. faecalis ATCC29212; Enterococcus faecalis, ATCC29212, Table 3, Table 2 compounds): 1 µg/mL (≈ 1.36 µM)
In Vitro Susceptibility (MIC) E. faecalis ATCC29212 (E. faecalis ATCC29212; Table 4, Formula III compounds): 1 µg/mL
SMILES: CC[C@H]1OC(=O)[C@H](C)[C@@H](O[C@H]2C[C@@](C)(OC)[C@@H](O)[C@H](C)O2)[C@H](C)[C@@H](O[C@@H]2O[C@H](C)C[C@H](N(C)C)[C@H]2O)[C@](C)(O)C[C@@H](C)C(=O)[C@H](C)[C@@H](O)[C@]1(C)O [Erythromycin]
